Where two headings read alike, the source gives them in different places. Square brackets hold non-standard residues; d marks the D form. Peptide text beside a SMILES is read from it. dPhe(F5) = N[C@H](Cc1c(F)c(F)c(F)c(F)c1F)C(=O)O; dCha = N[C@H](CC1CCCCC1)C(=O)O
Tests used:
Jurkat cells [1] = test: M phase checkpoint abrogation / non specific toxicity, colchicine treated Jurkat cells; format: cell-based; details: dose with 5 μg/ml colchicine that produced Jurkat cell cycle disturbance, 24 hours
Procedure: Flow cytometry analysis of M phase checkpoint abrogation by the compounds was performed using human T cell leukemia Jurkat cell line treated with colchicine (5 μg/ml or 0.5 μg/ml) and various doses of peptide/peptidomimetics for 24 hr (FIG. 12). The DNA of the cells was stained and analyzed by flow cytometry as described above.
(§1) The “Appearance of side effect when used alone” indicates the peptide/peptidomimetic dose that produced Jurkat cell cycle disturbance, i.e., the appearance of significant amounts of SubG1 cells (dead cells) or cells in which the DNA content of each varies more than usual. […] The “G2 abrogating dose” indicates the peptide/peptidomimetic dose with 40 μg/ml bleomycine that produced detectable G2 checkpoint abrogation activity following treatment for 24 hours. The “Appearance of side effect when used with colchicine” indicates the peptide/peptidomimetic dose with 5 μg/ml colchicine that produced Jurkat cell cycle disturbance following treatment for 24 hours.
A comparison between G2 checkpoint abrogating activity and non specific toxicity (M checkpoint abrogation) by CB501 was performed. In brief, Jurkat cells were treated with 40 μg/ml bleomycin or 0.5 μg/ml colchicine for G2 checkpoint abrogating activity and non specific toxicity, respectively. The DNA amount in each of the treated cells was analyzed by flow cytometry, as previously described.

CHK2 = CHK2 (Homo sapiens, UniProt O96017); test: In vitro kinase inhibition, PepTag Non-Radioactive Protein Kinase Assay; format: biochemical; details: purified CHK2 kinase
Sequence of CHK2 (O96017 whole entry): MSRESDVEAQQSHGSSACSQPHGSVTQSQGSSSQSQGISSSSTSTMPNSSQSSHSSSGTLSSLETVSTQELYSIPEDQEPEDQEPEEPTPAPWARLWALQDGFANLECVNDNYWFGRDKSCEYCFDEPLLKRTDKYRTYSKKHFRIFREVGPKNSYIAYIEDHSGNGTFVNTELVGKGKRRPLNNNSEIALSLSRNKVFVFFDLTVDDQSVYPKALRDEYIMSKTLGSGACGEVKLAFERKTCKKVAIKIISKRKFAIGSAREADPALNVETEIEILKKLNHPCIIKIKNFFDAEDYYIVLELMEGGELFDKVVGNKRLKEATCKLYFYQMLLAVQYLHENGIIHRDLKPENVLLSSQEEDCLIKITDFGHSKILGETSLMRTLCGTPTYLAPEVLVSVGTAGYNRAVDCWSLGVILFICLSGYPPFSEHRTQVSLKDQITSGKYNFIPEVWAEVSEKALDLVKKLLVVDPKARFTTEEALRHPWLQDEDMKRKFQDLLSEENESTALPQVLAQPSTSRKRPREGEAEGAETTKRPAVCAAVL
Procedure: Since two kinases, Chk1 and Chk2, are important for G2 checkpoint mechanism, kinase inhibition analysis of both enzymes was performed. In vitro kinase inhibition analysis was performed using “PepTag® Non-Radioactive Protein Kinase Assays”, Promega, according to company's protocol, except purified CHK2 kinase was used instead of PKC.

PKA = test: as above; format: biochemical
Jurkat cells [2] = test: Side effect of peptide used alone: Jurkat cell cycle disturbance (flow cytometry); format: cell-based; details: dose that produced Jurkat cell cycle disturbance, peptide alone
Procedure: Cell-cycle analysis The cell cycle status of the cells treated with bleomycin or adriamcin were analyzed by flow cytometry as described by Kawabe (1997) Nature 385:454-458. In brief, two million cells were re-suspended and incubated in 200 μl Krishan's solution (0.1% Sodium citrate, 50 μg/ml PI, 20 μg/ml RNase A and 0.5% NP-40) for 1 hr at 4° C. and analyzed by a flow cytometry, FACScan™ (Beckton Dickinson, Mountain View, Calif.) with the program CELLQuest™ (Beckton Dickinson).
as §1

Jurkat cells [3] = test: G2 checkpoint abrogation, flow cytometry of bleomycin treated Jurkat cells; format: cell-based, human; details: dose with 40 μg/ml bleomycine giving detectable G2 checkpoint abrogation, 24 hours
Procedure: Flow cytometry analysis of G2 checkpoint abrogation was performed using human leukemia derived Jurkat cell line. In brief, cultured cells were treated with various doses of peptide/peptidomimetic and 40 μg/ml bleomycine for 24 hr. The DNA of the cells was stained with propidium iodide and analyzed by flow cytometry.
The G2 checkpoint abrogating activity of various arginine rich sequences at different doses on cells treated with bleomycine was studied. Briefly, peptides were added to culture medium of Jurkat cells with bleomycin (40 μg/ml) at 0.2 μg/ml, 0.39 μg/ml, 0.78 μg/ml, 1.56 μg/ml, 3.125 μg/ml, 6.25 μg/ml, 12.5 μg/ml, 25 μg/ml and 50 μg/ml. Cells were subsequently harvested after 24 hours, stained with Krishan's solution, and analyzed with flow cytometry as previously described.

CT26WT = CT26WT s.c. syngeneic tumor model in Balb/c mice (Example 9); format: in vivo, mouse; details: CDDP 5 mg/kg, CBP501 7.5 mg/kg, anti-mPD1 200 ug, 3 dosing cycles
Procedure: Relative sizes of tumors were plotted versus the number of days after initiation of the treatment.
All animal studies were conducted according to the protocols approved by the institutional animal care committee of CanBas Co. Ltd. Six-week-old female Balb/c mice (Charles River Laboratories Japan Inc.) were inoculated subcutaneously in the flank with a suspension of CT26WT (5×10^5 cells). […] Tumor volumes, measured thrice weekly with a pair of calipers, were calculated with the following formula: volume (mm^3)=[width (mm)]^2×length (mm)/2. Growth curves after treatment were generated by plotting the mean+/−SE of tumor sizes.
Treatments were initiated when tumor size were reached (˜100 mm^3).

MIAPaCa2 = details: three hours exposure
Procedure: The medium was changed and incubated an additional 24, 48 or 72 hour. Following incubation, 20 μl of alamarBlue 90% reagent was added to each well for another 6 hours for detection of cell viability by fluorescent intensity. Fluorescent intensity was measured using a Spectrafluor Plus plate reader with exitation 530 nm and emission 590 nm. The IC50 was calculated (Table 6).

## N=C(N)NCCC[C@@H](NC(=O)[C@@H](CCCCN)NC(=O)[C@@H](CCCCN)NC(=O)[C@@H](CCCNC(=N)N)NC(=O)[C@@H](CCCNC(=N)N)NC(=O)[C@@H](CCC(N)=O)NC(=O)[C@@H](CCCNC(=N)N)NC(=O)[C@@H](CCCNC(=N)N)NC(=O)[C@@H](CCCNC(=N)N)NC(=O)[C@@H](CC1CCCCC1)NC(=O)[C@@H](Cc1c(F)c(F)c(F)c(F)c1F)NC(=O)[C@@H](CCCNC(=N)N)NC(=O)[C@@H](CO)NC(=O)CNC(=O)[C@@H](CO)NC(=O)[C@@H](Cc1ccc(O)cc1)NC(=O)[C@H](N)Cc1ccc(O)cc1)C(=O)NCC(=O)N[C@H](Cc1ccc(O)cc1)C(=O)O [CBP450, (d-Tyr)(d-Tyr)(d-Ser)(1-Gly)(d-Ser)(d-Arg)(d-Phe-2,3,4,5,6-F)(d-Cha)(d-Arg)(d-Arg)(d-Arg)(d-Gln)(d-Arg)(d-Arg)(d-Lys)(d-Lys)(d-Arg)(1-Gly)(d-Tyr)] (H-[dY][dY][dS]G[dS][dR][dPhe(F5)][dCha][dR][dR][dR][dQ][dR][dR][dK][dK][dR]G[dY]-OH; N-terminus and C-terminus assumed)
Jurkat cells [1]
  Appearance of side effect when used with Colchicine: >6.25 µM
CHK2
  IC50: 10 µM
PKA
  IC50: > 400 µM
Jurkat cells [2]
  Appearance of side effect when used alone: >6.25 µM
Jurkat cells [3]
  G2 abrogating dose: ≥0.78 µM

## N.N.[Cl][Pt][Cl] [cisplatin, cis-diamminodichloroplatinum, reference compound]
CT26WT
  Reduction of tumor growth as compared to vehicle-treated mice: 52.7%
MIAPaCa2; read-out: IC50 24 hr, additional 24 hour
  IC50: 16 µM
MIAPaCa2; read-out: IC50 48 hr, additional 48 hour
  IC50: 31 µM
MIAPaCa2; read-out: IC50 72 hr, additional 72 hour
  IC50: 46 µM
